Where a SMILES comes first, the peptide text is derived from it. Bridges are numbered along the chain shown (N, C = ends).
What was measured:
human VIPR1 = target: T1, human VIPR1 (Homo sapiens, UniProt P32241); assay: Calcium influx assay, antagonist activity against VIP-VIPR1 signaling; format: cell-based; conditions: ligand VIP (25 nM) at EC80; CHO-K1 cells; n = 4 wells, ± S.E.M; read-out: Ca influx assay [IC50 (nM)] VIPR1
T1 construct: host or cells: CHO-K1
T1 sequence (P32241 31-457): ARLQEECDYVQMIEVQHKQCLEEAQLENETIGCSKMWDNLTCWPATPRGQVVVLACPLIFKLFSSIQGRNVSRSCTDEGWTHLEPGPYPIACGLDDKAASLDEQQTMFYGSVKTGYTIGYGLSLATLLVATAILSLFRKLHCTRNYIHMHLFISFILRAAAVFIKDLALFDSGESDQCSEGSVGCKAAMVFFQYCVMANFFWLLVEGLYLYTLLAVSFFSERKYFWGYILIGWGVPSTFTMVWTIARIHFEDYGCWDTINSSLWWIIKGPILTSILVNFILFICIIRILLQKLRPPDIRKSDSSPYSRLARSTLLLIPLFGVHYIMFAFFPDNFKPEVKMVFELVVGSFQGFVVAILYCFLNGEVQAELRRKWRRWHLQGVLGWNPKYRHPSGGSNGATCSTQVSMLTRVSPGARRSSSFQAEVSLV
Procedure: Evaluation of antagonist activities of peptides against VIP-VIPR1, VIP-VIPR2, and PACAP-PAC1 signaling pathways and agonistic activity of KS-133 at VIPR2 was carried out by Eurofins DiscoverX (Fremont, CA, United States). Intracellular calcium mobilization was monitored using a calcium-sensitive dye loaded in CHO-K1 cells expressing human VIPR1 (ITEM 86-0030P-2243AN), VIPR2 (ITEM 86-0030P-2244AN), and PAC1 (ITEM 86-0030P-2066AN). The cells were preincubated with antagonistic peptides for 30 min at room temperature in the dark. After addition of the ligand at EC80, calcium mobilization was immediately monitored by FLIPR Tetra for 2 min. Cyclic AMP production in CHO-K1 cells expressing human VIPR2 was evaluated using HitHunter® cAMP assays (antagonist mode: ITEM 86-0007P-2362AN; agonist mode: ITEM 86-0007P-2362AG). The cells were preincubated with antagonistic peptides for 30 min at room temperature. After addition of the ligand at EC80, cells were further incubated for 30 min at room temperature. Cells were lysed and the cAMP content of the cell lysate was determined by the β-galactosidase-based enzyme fragment complementation assay ([Eglen, 2002]). IC50 values were estimated by the following equation: IC50 = 10^[Log(A/B) × (50–D)/(C–D) + Log(B)], where A is the concentration at >50% inhibition, B is the concentration at <50% inhibition, C is the inhibition rate at concertation A, and D is the inhibition rate at concertation B.
First, the antagonistic activities of parental VIpep-3, KS-132, KS-133 (monocyclic) (no bridging between Lys^7 and Asp^11), and KS-133 against human VIPR1, VIPR2, and PAC1 were evaluated by a calcium influx assay. After antagonistic peptide treatment for 30 min, ligand at a concentration of EC80 was added to the cells and then calcium signaling was measured.
FIGURE 3 Antagonistic/agonistic activities of peptides in the calcium influx and cAMP assays. For evaluation of the antagonistic activity, the cells were preincubated with antagonistic peptides for 30 min. In the calcium influx assay, after addition of ligand at EC80, calcium mobilization was monitored immediately (see details in the Methods section) (n = 4 wells for each treatment). In the cAMP assay, after a 30 min incubation with the ligand at EC80, cAMP production in cells was measured (see details in the Methods section) (n = 4 wells for each treatment).

[1] = system: prefrontal pyramidal neurons; assay: Golgi-Cox dendritic morphology and Sholl analysis of prefrontal cortex neurons; format: in vivo, mouse
Procedure: For behavioral experiments, all litters were randomly divided into Ro 25-1553- and PBS-treated groups. From P1 to P14, mice were injected s.c. once daily with Ro 25-1553 at a dose of 0.07 nmol/g ([Ago et al., 2015]). Mice treated with PBS from P1 to P14 were used as the control. KS-133 or the vehicle was simultaneously injected with Ro 25-1553 or PBS. Animals were weaned at P21 and divided by gender at P28. We used male mice exclusively to minimize any potential variability due to sex-specific effects on behavioral performance. […]
Dendritic morphological analysis was performed on mice after the novel object recognition test and samples were collected within 10 min of dissection. […] Morphologies of apical and basal dendrites were quantified in three dimensions using the Neurolucida neuron tracing system (MBF Bioscience, Williston, VT) with the experimenter blinded to the treatment. […]
FIGURE 6 Alterations in the dendritic morphology of prefrontal pyramidal neurons in mice treated with Ro 25-1553 and KS-133 during the early postnatal period. […] The number of intersections of dendrites with 7.5-μm concentric spheres centered on the soma was measured by Sholl analysis. Results are expressed as the mean ± S.E.M. of 40 neurons from five mice per group. *p < 0.05, **p < 0.01, ***p < 0.001.

IC50 (human VIPR1): > 5000 nM
SMILES: CC[C@H](C)[C@H](NC(=O)[C@H](CC(C)C)NC(=O)[C@@H]1CC(=O)NCCCC[C@@H]2NC(=O)[C@@H]3CCCN3C(=O)[C@H](CC(C)C)NC(=O)[C@H](Cc3ccc(O)cc3)NC(=O)[C@@H]3CCCN3C(=O)[C@@H]3CCCN3C(=O)[C@@H](NC(C)=O)CSSC[C@H](NC(=O)[C@H](CC(C)C)NC(=O)[C@H](Cc3ccc(O)cc3)NC2=O)C(=O)N1)C(N)=O [KS-133, Ac-c[Cys-Pro-Pro-Tyr-Leu-Pro-c(Lys-Tyr-Leu-Cys]-Asp)-Leu-Ile-NH2] (Ac-CPPYLPKYLCDLI-NH2; disulfide 1-10; lactam 7-11)
Effect on Ro 25-1553-induced changes in soma size, branch number and dendrite length ([1]; KS-133 simultaneously with Ro 25-1553, P1-14): counteracted
Sholl analysis, effect on Ro 25-1553-induced morphological abnormalities of apical and basal dendrites ([1]; KS-133 with Ro 25-1553, prefrontal cortex): prevented the morphological abnormalities

Source: PMC8607231, “Generation of KS-133 as a Novel Bicyclic Peptide with a Potent and Selective VIPR2 Antagonist Activity that Counteracts Cognitive Decline in a Mouse Model of Psychiatric Disorders” (Frontiers in Pharmacology, 2021)
